Test results from US11608324B2, “Solid forms of fasoracetam” (The Children's Hospital of Philadelphia, priority 2018, dated 2023).

What was measured:
[1] = Hygroscopicity (statement); type: physicochemical
[2] = Solubility curve in ethyl acetate (Crystal16); type: physicochemical; conditions: FIG. 10
Text: FIG. 7 is the x-ray powder diffraction of the R-fasoracetam monohydrate Form I starting material used in this Example 1, and FIG. 8 is the corresponding DSC thermogram of that starting material. A solubility curve was constructed for the cocrystal in ethyl acetate with the results plotted in FIG. 10 (from the data collected in Example 1) using a Crystal16 device from Technobis Crystallization Systems. The samples were created from the cocrystal without adding any additional water or other constituents. The samples were heated at a rate of 1°/15 minutes.

[3] = Thermogravimetric analysis (TGA), thermal stability; type: physicochemical
Method: TGA measurements were carried out on a METTLER TOLEDO TGA/SDTA 851e. Samples were placed in open aluminum oxide crucible. All experiments were performed under nitrogen flow.
A TGA plot can be found at FIG. 6. The sample was equilibrated at 30.0° C. for five minutes prior to ramping. A heating rate of 5° C. per minute was used from 30.0° C. to 350.0° C. No significant weight loss was observed until temperatures greater than 180° C. were recorded.

[4] = system: metabotropic glutamate receptor (mGluR), all classes; conditions: Hirouchi M, et al. (2000); WO2017/044491; cited from earlier work
[5] = subjects having a genetic alteration in an mGluR network gene; cited from earlier work

Structure (SMILES): O=C1CC[C@H](C(=O)N2CCCCC2)N1 [R-fasoracetam anhydrate]
- hygroscopicity [1]: hygroscopic

Structure (SMILES): Nc1ccc(C(=O)O)cc1.O=C1CC[C@H](C(=O)N2CCCCC2)N1 [R-fasoracetam:PABA cocrystal]
- solubility as compared with R-fasoracetam monohydrate Form I [2]: approximately three-fold lower
- thermal stability by TGA, stable up to ([3]; TGA, FIG. 6): about 200 °C
- temperature until which no significant weight loss was observed (TGA) ([3]; heating rate 5° C. per minute from 30.0° C. to 350.0° C.): greater than 180 °C

Structure (SMILES): O=C1CC[C@H](C(=O)N2CCCCC2)N1 [fasoracetam]
- activity against mGluRs in vitro [4]: nonselective activator against all classes of mGluRs
- treatment outcome in ADHD [5]: successfully treated
